From PMC2096529 (Purinergic Signalling, 2005)

Assays:
Assay in all cases: Fluo-3 calcium mobilization, FLIPR, […]1 cells
Type in all cases: cell-based
[1] = target: human P2Y2 receptor (Homo sapiens, UniProt P41231)
[2] = target: human P2Y6 receptor (Homo sapiens, UniProt Q15077)
[3] = target: human P2Y4 receptor (Homo sapiens, UniProt P51582)
human P2Y4 receptor, sequence (P51582 whole entry): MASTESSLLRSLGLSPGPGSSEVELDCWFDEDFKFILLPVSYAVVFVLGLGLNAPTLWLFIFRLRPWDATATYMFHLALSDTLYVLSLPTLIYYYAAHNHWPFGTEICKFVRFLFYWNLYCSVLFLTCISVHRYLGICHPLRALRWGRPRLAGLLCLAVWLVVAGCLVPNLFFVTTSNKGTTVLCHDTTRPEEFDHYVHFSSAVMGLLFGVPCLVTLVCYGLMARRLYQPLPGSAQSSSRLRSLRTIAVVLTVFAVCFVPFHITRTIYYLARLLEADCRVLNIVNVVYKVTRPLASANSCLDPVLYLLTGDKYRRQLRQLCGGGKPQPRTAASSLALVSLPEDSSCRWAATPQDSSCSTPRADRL

human P2Y6 receptor, sequence (Q15077 whole entry): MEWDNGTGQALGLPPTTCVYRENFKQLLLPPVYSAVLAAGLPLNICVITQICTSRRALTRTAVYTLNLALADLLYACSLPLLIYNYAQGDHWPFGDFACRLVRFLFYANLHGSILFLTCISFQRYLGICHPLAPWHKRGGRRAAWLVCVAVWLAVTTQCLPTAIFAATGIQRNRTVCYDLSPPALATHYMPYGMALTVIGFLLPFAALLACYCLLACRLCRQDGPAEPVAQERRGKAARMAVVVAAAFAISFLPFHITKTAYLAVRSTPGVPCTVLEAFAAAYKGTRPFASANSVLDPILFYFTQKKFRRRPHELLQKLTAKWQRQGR
human P2Y2 receptor, sequence (P41231 whole entry): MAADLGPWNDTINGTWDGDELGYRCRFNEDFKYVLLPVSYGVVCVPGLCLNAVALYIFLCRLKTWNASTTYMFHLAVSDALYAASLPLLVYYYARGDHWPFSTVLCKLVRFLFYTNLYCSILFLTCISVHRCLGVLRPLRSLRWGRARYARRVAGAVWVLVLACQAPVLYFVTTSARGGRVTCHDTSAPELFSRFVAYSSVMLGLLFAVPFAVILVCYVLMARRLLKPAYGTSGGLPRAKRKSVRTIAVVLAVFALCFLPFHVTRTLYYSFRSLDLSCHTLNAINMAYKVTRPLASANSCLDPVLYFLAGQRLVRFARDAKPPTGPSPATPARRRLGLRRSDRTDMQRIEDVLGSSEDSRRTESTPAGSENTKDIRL

Row | SMILES | EC50 [1] | EC50 [2] | EC50 [3]
1 | Nc1ncnc2c1ncn2[C@@H]1O[C@H](COP(=O)(O)OP(=O)(O)OP(=O)(O)O)[C@@H](O)[C@H]1O [ATP] | 15 nM | – | –
2 | O=c1ccn([C@@H]2O[C@H](COP(=O)(O)OP(=O)(O)OC[C@H]3O[C@@H](n4ccc(=O)[nH]c4=O)[C@H](O)[C@@H]3O)[C@@H](O)[C@H]2O)c(=O)[nH]1 [compound 4, UP2U] | – | 33000 nM | –
3 | O=c1ccn([C@@H]2O[C@H](COP(=O)(O)OP(=O)(O)OP(=O)(O)O)[C@@H](O)[C@H]2O)c(=O)[nH]1 [compound 7, UTP] | 15 nM | 1470 nM | 70 nM
4 | O=c1[nH]cnc2c1ncn2[C@@H]1O[C@H](COP(=O)(O)OP(=O)(O)OC[C@H]2O[C@@H](n3cnc4c(=O)[nH]cnc43)[C@H](O)[C@@H]2O)[C@@H](O)[C@H]1O [compound 22, IP2I] | 4800 nM | > 10000 nM | 5060 nM
5 | Cc1cn([C@H]2C[C@H](O)[C@@H](COP(=O)(O)OP(=O)(O)OP(=O)(O)OP(=O)(O)OC[C@H]3O[C@@H](n4ccc(=O)[nH]c4=O)[C@H](O)[C@@H]3O)O2)c(=O)[nH]c1=O [compound 46, UP4T] | 180 nM | – | 350 nM
6 | Nc1ccn([C@H]2C[C@H](O)[C@@H](COP(=O)(O)OP(=O)(O)OP(=O)(O)OP(=O)(O)OC[C@H]3O[C@@H](n4ccc(=O)[nH]c4=O)[C@H](O)[C@@H]3O)O2)c(=O)n1 [compound 51, UP4dC] | – | 16000 nM | 1220 nM

Results, then the molecule that gave them:

Row | EC50 [1] | EC50 [2] | EC50 [3] | SMILES
7 | 2100 nM | 7540 nM | 4640 nM | Nc1nc2c(ncn2[C@@H]2O[C@H](COP(=O)(O)OP(=O)(O)OC[C@H]3O[C@@H](n4ccc(=O)[nH]c4=O)[C@H](O)[C@@H]3O)[C@@H](O)[C@H]2O)c(=O)[nH]1 [compound 18, UP2G]
8 | 2000 nM | 520 nM | 16700 nM | Nc1ccn([C@@H]2O[C@H](COP(=O)(O)OP(=O)(O)OP(=O)(O)OC[C@H]3O[C@@H](n4ccc(=O)[nH]c4=O)[C@H](O)[C@@H]3O)[C@@H](O)[C@H]2O)c(=O)n1 [compound 31, UP3C]
9 | – | 380 nM | – | Nc1nc2c(ncn2[C@@H]2O[C@H](COP(=O)(O)OP(=O)(O)OP(=O)(O)OC[C@H]3O[C@@H](n4ccc(=O)[nH]c4=O)[C@H](O)[C@@H]3O)[C@@H](O)[C@H]2O)c(=O)[nH]1 [compound 32, UP3G]
10 | 4500 nM | 1310 nM | – | O=c1ccn([C@@H]2O[C@H](COP(=O)(O)OP(=O)(O)OP(=O)(O)OC[C@H]3O[C@@H](n4cnc5c(=O)[nH]cnc54)[C@H](O)[C@@H]3O)[C@@H](O)[C@H]2O)c(=O)[nH]1 [compound 33, UP3I]
11 | 470 nM | 280 nM | 1980 nM | Nc1nc2c(ncn2[C@H]2C[C@H](O)[C@@H](COP(=O)(O)OP(=O)(O)OP(=O)(O)OC[C@H]3O[C@@H](n4ccc(=O)[nH]c4=O)[C@H](O)[C@@H]3O)O2)c(=O)[nH]1 [compound 34, UP3dG]
12 | > 10000 nM | > 10000 nM | 6410 nM | Nc1nc2c(ncn2[C@@H]2O[C@H](COP(=O)(O)OP(=O)(O)OP(=O)(O)OC[C@H]3O[C@@H](n4cnc5c(=O)[nH]cnc54)[C@H](O)[C@@H]3O)[C@@H](O)[C@H]2O)c(=O)[nH]1 [compound 37, IP3G]
13 | – | 24800 nM | 200 nM | O=c1ccn([C@@H]2O[C@H](COP(=O)(O)OP(=O)(O)OP(=O)(O)OP(=O)(O)OC[C@H]3O[C@@H](n4ccc(=O)[nH]c4=O)[C@H](O)[C@@H]3O)[C@@H](O)[C@H]2O)c(=O)[nH]1 [compound 43, UP4U]
14 | 460 nM | 12100 nM | 850 nM | Nc1ccn([C@@H]2O[C@H](COP(=O)(O)OP(=O)(O)OP(=O)(O)OP(=O)(O)OC[C@H]3O[C@@H](n4ccc(=O)[nH]c4=O)[C@H](O)[C@@H]3O)[C@@H](O)[C@H]2O)c(=O)n1 [compound 44, UP4C]
15 | 520 nM | > 10000 nM | 280 nM | O=c1ccn([C@@H]2O[C@H](COP(=O)(O)OP(=O)(O)OP(=O)(O)OP(=O)(O)OC[C@H]3O[C@@H](n4cnc5c(=O)[nH]cnc54)[C@H](O)[C@@H]3O)[C@@H](O)[C@H]2O)c(=O)[nH]1 [compound 45, UP4I]
